What was measured:
[1] = tested on: LN229 human glioblastoma PTPN11^A72S/WT; experiment: Tumor growth in vivo, LN229 PTPN11^A72S/WT glioblastoma CDX model; details: single agent; 3 mg/kg IP weekly; athymic nude mice
Method: The combinatorial effects of Compound SOS1-(C) with RM-006 (also known as RMC-6272) on tumor cell growth in a human model of PTPN11-mutant glioblastoma, LN229 PTPN11^A72S/WT. 6-7 week athymic nude mice were implanted with LN229 in 50% matrigel (10×10^6 cells/mouse) subcutaneously in the flank. Once tumors reached an average size of 200 mm^3, mice were randomized into treatment groups (n=10/group) to start the administration of test articles or control. SOS1-(C) treatment was administered daily by oral gavage and RM-006 was administered weekly by intra-peritoneal injection. Body weight and tumor volume (using calipers) was measured twice weekly until study endpoint.

[2] = tested on: murine pancreatic ductal adenocarcinoma PAN02 PTPN11^G503V; experiment: Tumor growth in vivo, PAN02 PTPN11^G503V syngeneic model; set-up: species or system mouse; details: single agent
Method: The combinatorial effects of Compound SOS1-(C) with RM-006 (also known as RMC-6272) on tumor cell growth in vivo were evaluated in the murine pancreatic ductal adenocarcinoma PAN02 PTPN11^G503V syngeneic model using female C57BL/6J mice (6-7 weeks old). Mice were implanted with PAN02 tumor cells in PBS (5×10^6 cells/mouse) subcutaneously in the flank. Once tumors reached an average size of ˜145 mm^3, mice were randomized to treatment groups to start the administration of test articles or control. SOS1-(C) treatment was administered daily by oral gavage and RM-006 was administered weekly by intra-peritoneal injection. Body weight and tumor volumes (using calipers) were measured twice weekly until study endpoint. Regressions (R) are defined as decrease of 10% or more from initial tumor volume.

With `CO[C@H]1C[C@@H]2CC[C@@H](C)[C@@](O)(O2)C(=O)C(=O)N2CCCC[C@H]2C(=O)O[C@H]([C@H](C)C[C@@H]2CC[C@@H](OC(=O)NCCOCCOCCOCCOCCOCCOCCOCCOCCC(=O)NCCS(=O)(=O)c3ccc(C(=O)N4CCOc5ccc(-c6ccc(N)nc6)cc5C4)c(C)c3F)[C@H](OC)C2)C[C@@H](O)[C@H](C)/C=C(\C)[C@@H](O)[C@@H](OC)C(=O)[C@H](C)C[C@H](C)/C=C/C=CC=C1C` [RM-006] the “tumor growth inhibition (TGI)” value [1] was 72%, the “tumor growth inhibition (TGI)” value ([2]; 3 mg/kg IP weekly, female C57BL/6J mice) was 11% and the “regressions (decrease of 10% or more from initial tumor volume)” value ([2]; any timepoint in this study) was “did not induce regressions”.

Reference: US20250134891A1, “USE OF SOS1 INHIBITORS WITH MTOR INHIBITORS TO TREAT CANCERS” (Revolution Medicines, Inc., priority 2021, published 2025)
